Measurements as given in the METLIN SMRT retention time set (Domingo-Almenara et al. 2019).

Assay: gradient 5% acetonitrile 3 min, to 50% in 2 min, to 85% in 15 min, held 3 min, 100 µL/min
Conditions: column: Zorbax Extend-C18 2.1 x 50 mm; eluents: water / acetonitrile, 0.1% formic acid
Outline: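 Values are retention times taken from adduct peaks that software picked and an analyst inspected. The pure standards were run as mixtures of ~100 molecules on HPLC linked to a quadrupole time-of-flight mass spectrometer, in positive and negative ionization mode. A Zorbax Extend-C18 column (2.1 × 50 mm, 1.8 μm) was used at 100 μL/min with water and acetonitrile, each including 0.1% formic acid.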

Going from `O=C(NCCCN1CCOCC1)c1ccc2ccnc(N3CCN(c4ccccc4)CC3)c2c1` to `Cc1cccc(N2CCN(C3=NC(=O)C(Cc4ccccc4)S3)CC2)c1` (centres undefined), the RP-LC retention time rises from 586 s to 910 s.

Compared with `COc1ccc(-n2ccc(=O)c(-c3nc(-c4ccccc4)no3)n2)cc1`, `COc1ccc(CCNS(=O)(=O)c2cccc(-c3nc(-c4ccc(C)cc4)no3)c2)cc1OC` is higher in RP-LC retention time: 856 s for the first, 1150 s for the second.

Going from `CCN1CCn2cc(S(=O)(=O)Nc3ccc(F)cc3)cc2C1=O` to `CCOC(=O)c1ccc(NS(=O)(=O)c2cc3n(c2)CCCN(CC)C3=O)cc1`, the RP-LC retention time rises from 696 s to 759 s.

Going from `CC(C)Cc1nc2nccc(-c3ccccc3)n2n1` to `CCN1CCN(c2nccc(-c3cnc4nc(-c5cccnc5)nn4c3C)n2)CC1`, the RP-LC retention time falls from 877 s to 574 s.

Compared with `CCN1C(=O)c2cccnc2Sc2cc(CNC(=O)Cc3cccc(F)c3)ccc21`, `O=C(Nc1ccc(F)cc1F)c1c(O)c2cccnc2n(-c2cccc(F)c2)c1=O` is higher in RP-LC retention time: 761 s for the first, 918 s for the second.

First: COCC(=O)NC(Cc1ccccc1)c1nnc(N2CCSCC2)o1 (centres undefined)
Second: CCC(C)NC(=O)c1nnc(-c2ccc(S(=O)(=O)N3CCCCC3)cc2)o1 (centres undefined)
The RP-LC retention time of the first is lower: 721 s for the first, 961 s for the second.

Going from `Cc1ccc(N2CCC(NC(=O)c3cccc(C#N)c3)C2=O)cc1` (centres undefined) to `CCC(=O)N1CCc2cc(N3CC(C(=O)NCc4ccc(C)cc4)CC3=O)ccc21` (centres undefined), the RP-LC retention time falls from 813 s to 756 s.

Going from `CC(C)(C)c1ccc(OCC(=O)Nc2ccc(CC(=O)N3CCOCC3)cc2)cc1` to `O=C(Cn1nc(C(=O)N2CCOCC2)c2ccccc21)Nc1ccc(F)cc1`, the RP-LC retention time falls from 870 s to 733 s.

Compared with `CC(C(=O)O)c1ccc2c(c1)Cc1cccnc1O2` (centres undefined), `CCCn1c(-c2cccc(C(=O)NCC3CCCCC3)c2)nc2cccnc21` is higher in RP-LC retention time: 797 s for the first, 904 s for the second.

Going from `COc1ccc(S(=O)(=O)N2CCCC(C(=O)NCCCO)C2)cc1OC` (centres undefined) to `COc1cccc(S(=O)(=O)N2C[C@@H]3C[C@H]2C[C@@H]3NC(=O)c2cccnc2)c1`, the RP-LC retention time falls from 880 s to 676 s.

Going from `Cc1ccc(-c2nc3nc(C)cc(C)n3c2Nc2c(C)cccc2C)cc1` to `Cc1ccc(C)c(Nc2c(-c3nc(C)no3)cnc3nc(C)ccc23)c1`, the RP-LC retention time rises from 806 s to 813 s.

Compared with `Cc1ccc(S(=O)(=O)c2cnc(N3CCN(c4cc(Cl)ccc4C)CC3)nc2N)cc1`, `Cc1ccc(S(=O)(=O)n2nc(-c3cccc(C)c3)nc2N)cc1` is lower in RP-LC retention time: 1320 s for the first, 957 s for the second.

Going from `COC(=O)c1ccccc1Nc1c(-c2ccc3c(c2)OCO3)nc2cnccn12` to `O=C(Nc1c(-c2ccccc2)nc2ccccn12)c1c(F)cccc1F`, the RP-LC retention time falls from 932 s to 630 s.

Compared with `Cc1oc(C2CCC2)nc1C(=O)NCc1ccccc1C(F)(F)F`, `Cc1cc(F)ccc1NC(=O)Cn1c(C)cc(-c2nnc(C3CCC3)o2)c1C` is lower in RP-LC retention time: 1130 s for the first, 934 s for the second.

Going from `CCN(Cc1ccccc1)C(=O)CN1C(=O)C(O)(c2cccc(F)c2)c2ccccc21` (centres undefined) to `CN1C(=O)c2cc(C(=O)NCc3ccccc3F)nn2CC1(C)C(=O)NCc1ccccc1` (centres undefined), the RP-LC retention time rises from 655 s to 697 s.

First: CCCNS(=O)(=O)c1ccc(-c2cc(C(F)(F)F)on2)o1
Second: CCn1ncn2cc(S(=O)(=O)NCc3ccc(Cl)cc3)cc2c1=O
The RP-LC retention time of the first is higher: 1010 s for the first, 878 s for the second.

First: Cc1csc(NC(=O)C2CC(=O)N(c3n[nH]c4ccccc34)C2)n1 (centres undefined)
Second: CNC(=O)[C@@H]1C[C@H](Oc2ccccc2)CN1C(=O)Cn1c(=O)oc2ccccc21
The RP-LC retention time of the first is lower: 665 s for the first, 732 s for the second.

Compared with `CCN1C(=O)COc2ccc(-c3noc(-c4ccccc4C)n3)cc21`, `O=C(CCn1nnc2cc(-c3noc(-c4ccccc4Br)n3)ccc21)N1CCCC1` is lower in RP-LC retention time: 1230 s for the first, 954 s for the second.

Compared with `Cc1ccc(CNC(=O)C2(C)CN(S(C)(=O)=O)CC(=O)N2Cc2ccc(C)cc2)cc1` (centres undefined), `CCc1ccc(NC(=O)Cn2c(=O)n(-c3ccc(C)cc3)c(=O)c3c2cc(C)n3C)cc1` is higher in RP-LC retention time: 899 s for the first, 956 s for the second.

Going from `CCCN1CCN(CCCNC(=O)c2c(N3CCCC3=O)c3cc(F)ccc3n2CC)CC1` to `CCN1CCN(Cc2ccc(C(=O)Nc3ccc(C)c(Oc4ccc5c(c4)CC(=O)N5)c3)cc2C(F)(F)F)CC1`, the RP-LC retention time rises from 602 s to 817 s.

First: O=C(O)C1CCc2sc(C(=O)N3CCCCCC3)cc2C1 (centres undefined)
Second: O=C(O)c1cc(N2CCN(CC(=O)N3CCCCCC3)CC2)ccc1NC(=O)C1CC1
The RP-LC retention time of the first is higher: 746 s for the first, 615 s for the second.

Going from `CCOC(=O)c1cn[nH]c1S(=O)(=O)Nc1ccc2c(c1)OCCO2` to `Cn1cc(C(=O)NCc2ccc3c(c2)OCO3)c(S(=O)(=O)N2CCCCC2)n1`, the RP-LC retention time rises from 683 s to 854 s.

First: Cc1csc(-c2cc(S(=O)(=O)NC(C)(C)C)cn2CC(=O)N2CCCCC2)n1
Second: Cc1ccc(N(C)S(=O)(=O)c2cc(-c3[nH]ncc3C(=O)N3CCCC3)oc2C)cc1
The RP-LC retention time of the first is higher: 926 s for the first, 776 s for the second.

First: COc1ccc2c(c1)C1(CCN(C(=O)Cc3ccccc3Cl)C1)C(=O)N2C (centres undefined)
Second: COc1cccc(CNC(=O)CN2C(=O)CSc3cccn3-c3ccccc32)c1
The RP-LC retention time of the first is higher: 848 s for the first, 846 s for the second.

Compared with `CCOCC(=O)NCCNC(=O)c1ccc(NC(C)=O)cc1`, `CCOc1ccc(NC(=O)Cn2ccc3ccc(-c4nnc(CC)o4)cc32)cc1` is higher in RP-LC retention time: 570 s for the first, 851 s for the second.

Going from `Cc1cc(C)n(Cc2nc(-c3ccc(NC(=O)c4ccc(C)s4)cc3)oc2C)n1` to `COc1ccccc1CC(=O)Nc1ccc(-c2nc(Cn3cc(C)cn3)c(C)o2)cc1`, the RP-LC retention time falls from 955 s to 909 s.

Compared with `O=S(=O)(Cc1ccccc1)N1CCCC(c2nnnn2-c2ccccc2)C1` (centres undefined), `O=C(Nc1c(F)cccc1F)N1CC(c2nc(Cc3ccccc3)no2)C1` is lower in RP-LC retention time: 905 s for the first, 753 s for the second.

Going from `CCN1C(=O)CCc2cc(NS(=O)(=O)c3ccc(Cl)c(Cl)c3)ccc21` to `Cc1cc(F)ccc1NC(=O)CN1C(=O)C2CCCCN2c2ccc(S(=O)(=O)N(C)C)cc21` (centres undefined), the RP-LC retention time falls from 904 s to 896 s.

First: CC(C)c1nnc(-c2cccnc2N2CCN(C(=O)C3CCCO3)CC2)o1 (centres undefined)
Second: COc1ccc(N2CCN(C(=O)c3cn4ccccc4n3)CC2)cc1
The RP-LC retention time of the first is higher: 675 s for the first, 603 s for the second.

Going from `O=C(Nc1nnc(-c2cc3ccccc3o2)o1)c1ccc([N+](=O)[O-])o1` to `O=C(NCc1ccccc1Cl)c1nnc(-c2ccc(S(=O)(=O)N3CCCCC3)cc2)o1`, the RP-LC retention time rises from 792 s to 1030 s.

Compared with `O=C(c1ccco1)N1CCCCC1c1nc(C2CC2)n[nH]1` (centres undefined), `CC1CCN(CC2CCCCCN2C(=O)Nc2ccc3c(c2)OCCO3)CC1` (centres undefined) is higher in RP-LC retention time: 625 s for the first, 684 s for the second.

Going from `Cc1ccc(CS(=O)(=O)N2CCC(C3CCNC3)CC2)cc1C` (centres undefined) to `CS(=O)(=O)N1CCC(C(=O)N2CCC(Oc3nc4ccc(F)cc4s3)CC2)CC1`, the RP-LC retention time rises from 666 s to 779 s.

First: Cc1cccc2sc(NC(=O)Cc3csc(Nc4ccc(Cl)cn4)n3)nc12
Second: CCNC(=O)c1sc(Nc2cccc(C)n2)nc1C
The RP-LC retention time of the first is higher: 1140 s for the first, 657 s for the second.

Going from `O=C(O)c1cc(-c2c[nH]c3ccccc23)nc2ccccc12` to `Nc1nc(Nc2ccccc2F)nc2cccc(F)c12`, the RP-LC retention time falls from 624 s to 615 s.

Compared with `CCn1cc(CC(=O)NC(C)C)c2cccnc21`, `CC(C(=O)NC1CCSC1=O)n1nc(-n2cccn2)ccc1=O` (centres undefined) is higher in RP-LC retention time: 595 s for the first, 616 s for the second.

Going from `CCc1ccc(-c2nc(-c3ccc4c(c3)nnn4CCN3CCOCC3)no2)cc1` to `CN(C)c1ccc(-c2nc(-c3cn(Cc4ccc(F)cc4)nn3)no2)cc1`, the RP-LC retention time rises from 663 s to 1010 s.

First: CC1(O)CCOC2(CCN(Cc3ccccc3OC(F)(F)F)CC2)C1 (centres undefined)
Second: O=C1CCCN1CCCN1C(=O)[C@H]2CN(Cc3cccc(OC(F)(F)F)c3)C[C@H]2C1=O
The RP-LC retention time of the first is lower: 632 s for the first, 678 s for the second.

Going from `Cc1noc(C)c1S(=O)(=O)N1CC(c2nc(-c3ccncc3)nn2C)C1` to `Cc1cccc(-c2nc(C3CCN(S(=O)(=O)c4cccc(F)c4)CC3)no2)c1`, the RP-LC retention time rises from 618 s to 1170 s.

Compared with `COc1ccc([C@H]2Sc3ccccc3N(CCN(C)C)C(=O)[C@H]2OC(C)=O)cc1`, `COCCN1C(=O)c2ccccc2C(C(=O)NCc2ccco2)C1c1ccc(F)cc1` (centres undefined) is higher in RP-LC retention time: 704 s for the first, 822 s for the second.

Compared with `CC1(C)CC(=O)c2cn(-c3ccc(F)cc3)c(=O)c(C(=O)N3CCC(N4CCCCC4)CC3)c2C1`, `Cc1cc(C)cc(C(=O)N2CCCC(C(=O)NC3CCCCCCC3)C2)c1` (centres undefined) is higher in RP-LC retention time: 634 s for the first, 1040 s for the second.

Compared with `Cc1cnc(C2CN(Cc3ccc(F)cc3F)C2)n1Cc1cccnc1`, `OC[C@@H]1CN(Cc2ccc(OC(F)(F)F)cc2)C[C@H]1c1ccncc1` is lower in RP-LC retention time: 544 s for the first, 521 s for the second.

Compared with `CCCSc1nnc(NC(=O)CCc2ccc(C)o2)s1`, `Cc1cc(=O)n(CC(=O)NCCn2nc(-c3ccc(F)cc3)ccc2=O)cn1` is lower in RP-LC retention time: 892 s for the first, 603 s for the second.

Going from `CCOC(=O)C1CCN(c2cc3c(cc2NC(=O)CC(C)C)n(C)c(=O)c(=O)n3C)CC1` to `O=C([C@@H]1C[C@H](Oc2cccnc2)CN1C(=O)C1CCCC1)N1CCCC1`, the RP-LC retention time falls from 822 s to 577 s.

Going from `CN(C)CC1(O)CCC2(CCN(C(=O)CC3CCCC3)CC2)CC1` to `O=C(N[C@@H]1CN(c2ncccn2)C[C@H]1CO)c1ccoc1`, the RP-LC retention time falls from 598 s to 567 s.

With `O=C(NCc1ccc(Cl)cc1)c1cccn1-c1cccnc1` the RP-LC retention time was 742 s.
